Measurements from publication PMC10924921, “Mi-2β promotes immune evasion in melanoma by activating EZH2 methylation” (Nature Communications, 2024).

How the values were obtained:
Test in all cases: biochemical
Design in all cases: KINOMEscan active-site competition binding panel (468 kinase assays), per cent of control at 1000 nM
Conditions in all cases: KINOMEscan per cent of control (binding competition); read-out: Percent Control
DDR1 = DDR1 (Homo sapiens, UniProt Q08345)
Description: (§1) Figure S7 / Percent Control

RET = RET (Homo sapiens, UniProt P07949)
Description: as §1

PAK6 = PAK6 (Homo sapiens, UniProt Q9NQU5)
Description: as §1

FLT3(K663Q) = FLT3(K663Q) (Homo sapiens, UniProt P36888, K663Q)
Description: as §1

MLK2 = molecular target: T1, MLK2 (Homo sapiens, UniProt Q02779)
T1 construct: gene MAP3K10
Description: as §1

NEK11 = NEK11 (Homo sapiens, UniProt Q8NG66)
Description: as §1

PKAC-alpha = molecular target: T2, PKAC-alpha (Homo sapiens, UniProt P17612)
T2 construct: gene PRKACA
Description: as §1

NEK6 = NEK6 (Homo sapiens, UniProt Q9HC98)
Description: as §1

CHEK1 = CHEK1 (Homo sapiens, UniProt O14757)
Description: as §1

[1] = molecular target: T3, ABL1(H396P)-phosphorylated (Homo sapiens, UniProt P00519, H396P)
T3 construct: phosphorylated
Description: as §1

QSK = molecular target: T4, QSK (Homo sapiens, UniProt Q9Y2K2)
T4 construct: gene SIK3
Description: as §1

ERBB4 = ERBB4 (Homo sapiens, UniProt Q15303)
Description: as §1

STK16 = STK16 (Homo sapiens, UniProt O75716)
Description: as §1

MARK4 = MARK4 (Homo sapiens, UniProt Q96L34)
Description: as §1

PIK3CD = PIK3CD (Homo sapiens, UniProt O00329)
Description: as §1

CLK4 = CLK4 (Homo sapiens, UniProt Q9HAZ1)
Description: as §1

NLK = NLK (Homo sapiens, UniProt Q9UBE8)
Description: as §1

PRKD1 = PRKD1 (Homo sapiens, UniProt Q15139)
Description: as §1

[2] = molecular target: T5, RPS6KA4(Kin.Dom.2-C-terminal) (Homo sapiens, UniProt O75676)
T5 construct: Kin.Dom.2-C-terminal
Description: as §1

p38-beta = molecular target: T6, p38-beta (Homo sapiens, UniProt Q15759)
T6 construct: gene MAPK11
Description: as §1

ACVR2A = ACVR2A (Homo sapiens, UniProt P27037)
Description: as §1

ERK1 = molecular target: T7, ERK1 (Homo sapiens, UniProt P27361)
T7 construct: gene MAPK3
Description: as §1

EPHA8 = EPHA8 (Homo sapiens, UniProt P29322)
Description: as §1

DLK = molecular target: T8, DLK (Homo sapiens, UniProt Q12852)
T8 construct: gene MAP3K12
Description: as §1

ACVR1B = ACVR1B (Homo sapiens, UniProt P36896)
Description: as §1

T8 sequence (Q12852 whole entry): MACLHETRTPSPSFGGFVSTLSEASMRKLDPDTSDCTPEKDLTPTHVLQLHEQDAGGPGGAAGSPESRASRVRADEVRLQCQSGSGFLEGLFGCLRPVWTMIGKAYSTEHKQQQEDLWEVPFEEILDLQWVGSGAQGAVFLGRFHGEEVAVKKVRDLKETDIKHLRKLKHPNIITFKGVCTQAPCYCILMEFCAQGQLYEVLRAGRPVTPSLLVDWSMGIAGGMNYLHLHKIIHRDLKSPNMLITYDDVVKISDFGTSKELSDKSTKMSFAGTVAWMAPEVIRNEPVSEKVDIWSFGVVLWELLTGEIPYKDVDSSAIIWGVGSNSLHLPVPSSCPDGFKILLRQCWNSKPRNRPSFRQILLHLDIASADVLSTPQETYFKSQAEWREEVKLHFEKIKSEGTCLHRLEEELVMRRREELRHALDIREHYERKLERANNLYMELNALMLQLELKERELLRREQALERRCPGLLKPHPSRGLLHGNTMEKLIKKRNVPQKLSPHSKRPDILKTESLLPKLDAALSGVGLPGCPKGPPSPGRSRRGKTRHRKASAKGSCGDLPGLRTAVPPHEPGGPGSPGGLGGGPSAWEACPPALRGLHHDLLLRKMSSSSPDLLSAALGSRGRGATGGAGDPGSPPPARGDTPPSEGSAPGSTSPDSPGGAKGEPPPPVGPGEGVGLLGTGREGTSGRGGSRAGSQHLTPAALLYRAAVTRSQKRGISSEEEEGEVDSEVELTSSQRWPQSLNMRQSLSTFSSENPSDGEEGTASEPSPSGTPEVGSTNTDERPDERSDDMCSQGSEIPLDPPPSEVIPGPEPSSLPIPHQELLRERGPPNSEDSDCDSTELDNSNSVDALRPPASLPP
Sequence of PAK6 (Q9NQU5 whole entry): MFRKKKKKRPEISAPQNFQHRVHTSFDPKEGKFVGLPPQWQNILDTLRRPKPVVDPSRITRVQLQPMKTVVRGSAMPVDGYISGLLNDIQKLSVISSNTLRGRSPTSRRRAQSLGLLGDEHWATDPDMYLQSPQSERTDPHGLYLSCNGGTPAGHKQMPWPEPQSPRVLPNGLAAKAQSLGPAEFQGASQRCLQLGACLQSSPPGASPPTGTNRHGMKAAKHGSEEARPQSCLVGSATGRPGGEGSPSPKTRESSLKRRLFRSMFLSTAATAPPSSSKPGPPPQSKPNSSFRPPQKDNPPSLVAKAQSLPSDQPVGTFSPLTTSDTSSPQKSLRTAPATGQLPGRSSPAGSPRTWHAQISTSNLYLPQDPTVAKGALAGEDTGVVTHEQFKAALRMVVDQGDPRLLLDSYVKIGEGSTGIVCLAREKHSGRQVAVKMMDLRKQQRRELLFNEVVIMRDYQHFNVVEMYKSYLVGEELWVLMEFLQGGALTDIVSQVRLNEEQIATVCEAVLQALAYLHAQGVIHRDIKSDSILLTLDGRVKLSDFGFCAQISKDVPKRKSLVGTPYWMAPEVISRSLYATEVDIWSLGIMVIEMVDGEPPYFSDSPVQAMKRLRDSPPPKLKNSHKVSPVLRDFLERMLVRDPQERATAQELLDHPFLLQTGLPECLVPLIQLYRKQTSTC
Sequence of ERBB4 (Q15303 whole entry): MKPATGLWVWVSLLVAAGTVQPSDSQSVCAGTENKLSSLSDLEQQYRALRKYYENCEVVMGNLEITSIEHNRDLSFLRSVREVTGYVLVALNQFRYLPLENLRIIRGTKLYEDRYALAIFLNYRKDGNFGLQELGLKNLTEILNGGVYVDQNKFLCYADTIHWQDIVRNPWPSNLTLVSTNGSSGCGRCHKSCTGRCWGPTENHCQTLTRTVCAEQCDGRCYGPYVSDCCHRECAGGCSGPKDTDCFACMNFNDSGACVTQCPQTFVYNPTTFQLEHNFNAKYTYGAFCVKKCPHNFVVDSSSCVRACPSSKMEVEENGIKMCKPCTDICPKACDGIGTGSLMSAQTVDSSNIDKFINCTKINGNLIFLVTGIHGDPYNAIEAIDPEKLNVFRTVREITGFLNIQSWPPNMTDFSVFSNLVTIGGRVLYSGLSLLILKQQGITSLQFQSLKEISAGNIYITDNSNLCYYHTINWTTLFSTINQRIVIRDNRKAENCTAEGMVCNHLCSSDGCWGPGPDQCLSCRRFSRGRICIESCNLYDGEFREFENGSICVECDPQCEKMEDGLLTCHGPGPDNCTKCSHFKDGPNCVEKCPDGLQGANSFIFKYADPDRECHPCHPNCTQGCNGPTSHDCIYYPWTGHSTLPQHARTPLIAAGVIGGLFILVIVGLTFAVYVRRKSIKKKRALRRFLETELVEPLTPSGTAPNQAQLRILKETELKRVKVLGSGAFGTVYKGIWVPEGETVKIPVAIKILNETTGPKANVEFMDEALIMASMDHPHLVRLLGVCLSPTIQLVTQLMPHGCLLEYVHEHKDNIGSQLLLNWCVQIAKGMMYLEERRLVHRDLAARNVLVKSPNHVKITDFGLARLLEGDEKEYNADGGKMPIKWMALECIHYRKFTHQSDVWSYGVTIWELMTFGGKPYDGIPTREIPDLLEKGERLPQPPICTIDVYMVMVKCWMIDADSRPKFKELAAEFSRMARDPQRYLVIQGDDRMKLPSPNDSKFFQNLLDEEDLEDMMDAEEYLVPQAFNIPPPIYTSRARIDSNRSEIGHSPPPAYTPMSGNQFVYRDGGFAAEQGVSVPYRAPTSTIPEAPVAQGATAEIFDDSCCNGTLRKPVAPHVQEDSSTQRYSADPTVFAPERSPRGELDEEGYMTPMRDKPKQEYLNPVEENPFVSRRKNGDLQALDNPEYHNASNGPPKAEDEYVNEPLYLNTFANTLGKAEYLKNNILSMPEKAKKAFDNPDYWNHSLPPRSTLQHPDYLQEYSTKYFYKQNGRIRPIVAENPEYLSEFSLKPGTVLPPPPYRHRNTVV
T4 sequence (Q9Y2K2 whole entry): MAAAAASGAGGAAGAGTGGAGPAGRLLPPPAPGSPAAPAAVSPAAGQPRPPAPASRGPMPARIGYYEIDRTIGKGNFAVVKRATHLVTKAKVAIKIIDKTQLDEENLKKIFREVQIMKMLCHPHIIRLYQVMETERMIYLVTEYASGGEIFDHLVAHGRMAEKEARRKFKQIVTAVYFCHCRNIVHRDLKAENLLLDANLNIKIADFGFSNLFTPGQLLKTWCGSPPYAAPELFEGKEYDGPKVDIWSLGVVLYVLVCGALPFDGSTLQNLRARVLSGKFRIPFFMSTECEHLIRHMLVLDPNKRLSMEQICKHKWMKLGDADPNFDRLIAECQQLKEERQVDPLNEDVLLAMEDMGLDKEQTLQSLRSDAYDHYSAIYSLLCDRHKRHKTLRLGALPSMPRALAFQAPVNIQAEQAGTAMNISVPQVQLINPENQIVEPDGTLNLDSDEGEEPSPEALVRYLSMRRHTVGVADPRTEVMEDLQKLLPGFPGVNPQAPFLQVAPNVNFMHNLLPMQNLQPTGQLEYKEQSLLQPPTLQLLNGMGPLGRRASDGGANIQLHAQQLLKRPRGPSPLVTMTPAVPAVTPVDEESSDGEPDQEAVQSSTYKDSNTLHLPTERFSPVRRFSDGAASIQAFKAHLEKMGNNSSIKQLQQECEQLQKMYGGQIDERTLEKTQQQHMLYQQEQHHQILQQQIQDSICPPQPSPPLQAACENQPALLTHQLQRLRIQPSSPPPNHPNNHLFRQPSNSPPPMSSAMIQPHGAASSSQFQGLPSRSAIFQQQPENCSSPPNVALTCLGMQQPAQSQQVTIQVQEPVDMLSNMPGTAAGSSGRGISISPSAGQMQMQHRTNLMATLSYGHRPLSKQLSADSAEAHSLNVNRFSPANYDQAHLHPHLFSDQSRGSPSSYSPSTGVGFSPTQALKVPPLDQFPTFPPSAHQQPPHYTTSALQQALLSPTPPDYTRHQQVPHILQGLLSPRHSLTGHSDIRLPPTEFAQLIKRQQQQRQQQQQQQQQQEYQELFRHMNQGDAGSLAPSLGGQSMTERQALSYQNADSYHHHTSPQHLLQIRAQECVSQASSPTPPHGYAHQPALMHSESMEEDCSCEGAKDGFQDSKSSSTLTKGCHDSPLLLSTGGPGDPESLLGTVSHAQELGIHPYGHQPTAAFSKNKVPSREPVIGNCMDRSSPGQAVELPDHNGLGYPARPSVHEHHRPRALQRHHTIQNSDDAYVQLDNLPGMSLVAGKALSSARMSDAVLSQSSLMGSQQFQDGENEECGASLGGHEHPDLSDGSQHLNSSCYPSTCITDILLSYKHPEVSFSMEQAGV
Sequence of NEK11 (Q8NG66 whole entry): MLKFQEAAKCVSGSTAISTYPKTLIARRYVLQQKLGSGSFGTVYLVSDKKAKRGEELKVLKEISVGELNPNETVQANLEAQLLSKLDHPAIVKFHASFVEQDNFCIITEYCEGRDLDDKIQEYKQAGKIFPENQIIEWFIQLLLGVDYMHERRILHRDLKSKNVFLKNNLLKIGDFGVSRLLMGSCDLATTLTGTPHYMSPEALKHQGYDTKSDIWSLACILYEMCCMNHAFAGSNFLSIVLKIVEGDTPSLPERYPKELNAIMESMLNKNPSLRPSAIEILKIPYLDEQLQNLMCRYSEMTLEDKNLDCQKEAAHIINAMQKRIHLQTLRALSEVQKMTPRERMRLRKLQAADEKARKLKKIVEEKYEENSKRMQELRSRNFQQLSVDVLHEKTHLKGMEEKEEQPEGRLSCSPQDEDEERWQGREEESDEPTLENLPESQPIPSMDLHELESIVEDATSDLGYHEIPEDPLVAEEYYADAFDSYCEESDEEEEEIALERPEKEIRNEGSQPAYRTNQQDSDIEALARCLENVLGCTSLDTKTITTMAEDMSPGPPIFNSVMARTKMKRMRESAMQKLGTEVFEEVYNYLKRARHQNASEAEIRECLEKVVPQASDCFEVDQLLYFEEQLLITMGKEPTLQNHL

## Cn1c(=O)[nH]c2ccc(-c3cccc(C(=O)NC4CCn5ccnc5C4)c3)cc21 (stereo not shown) [Z36-MP5]
DDR1
  remaining binding at 1 µM: 88%
RET
  remaining binding at 1 µM: 67%
PAK6
  remaining binding at 1 µM: 91%
FLT3(K663Q)
  remaining binding at 1 µM: 98%
MLK2
  remaining binding at 1 µM: 95%
NEK11
  remaining binding at 1 µM: 33%
PKAC-alpha
  remaining binding at 1 µM: 85%
NEK6
  remaining binding at 1 µM: 83%
CHEK1
  remaining binding at 1 µM: 93%
[1]
  remaining binding at 1 µM: 82%
QSK
  remaining binding at 1 µM: 63%
ERBB4
  remaining binding at 1 µM: 96%
STK16
  remaining binding at 1 µM: 31%
MARK4
  remaining binding at 1 µM: 95%
PIK3CD
  remaining binding at 1 µM: 74%
CLK4
  remaining binding at 1 µM: 69%
NLK
  remaining binding at 1 µM: 59%
PRKD1
  remaining binding at 1 µM: 100%
[2]
  remaining binding at 1 µM: 59%
p38-beta
  remaining binding at 1 µM: 87%
ACVR2A
  remaining binding at 1 µM: 57%
ERK1
  remaining binding at 1 µM: 98%
EPHA8
  remaining binding at 1 µM: 75%
DLK
  remaining binding at 1 µM: 62%
ACVR1B
  remaining binding at 1 µM: 94%
